In patent EP4775575A1, “COMPOUND USED AS CDK4 KINASE INHIBITOR AND USE THEREOF” (TYK Medicines, Inc., priority 2023, dated 2025):
Where two headings read alike, the source gives them in different places.

Key:
[1] = test system: Human breast cancer cells MCF-7; assay: Cell anti-proliferation assay (MTT), MCF-7; assay type: cell-based; conditions: MCF-7 cells, incubated for 5 days
Experimental: (§1) Human breast cancer cells MCF-7, human ovarian cancer cells A2780, human mantle cell lymphoma cells JEKO-1. DMEM medium (Bio-Channel), DMSO (dimethyl sulfoxide), MTT (thiazolyl blue), 0.25% EDTA-Trypsin (trypsin digestive solution), 1×PBS (phosphate buffered saline, pH 7.2), 96-well plate (Corning), fetal bovine serum (FBS), 10,000 U/mL penicillin-G/streptomycin, high-speed refrigerated centrifuge (EPPENDORF 5810R), and microplate reader (Tecan Spark).
(§2) • A) Tumor cells were cultured in DMEM (high glucose, containing 10% FBS and 100 U/mL penicillin-G/streptomycin) at 37 °C, 5% CO2 and saturated humidity until 80-90% confluence. • B) The medium in the 10 cm culture dish was removed. • C) Cells were rinsed once with 10 mL of 1×PBS. • D) 4 mL of 0.25% EDTA-Trypsin was added, and the cells were digested in a 37 °C, 5% CO2 incubator for 5 minutes. The mixture was transferred to a 15 mL centrifuge tube, centrifuged at 200 g for 5 minutes, and the supernatant was discarded to obtain cell pellet. • E) The cells were resuspended in 4 mL of DMEM medium, counted, and adjusted to 50,000 cells/mL. • F) 100 µL of cell suspension was added to each well of a 96-well plate, and the plate was incubated overnight at 37 °C in a 5% CO2 incubator.
(§3) • A) Gradient dilution solutions of the test compounds were prepared: the test compound was prepared into a 1 mM stock solution. Then 1.5 µL of the stock solution was dissolved in 1.5 mL of DMSO-free medium, followed by 3-fold serial gradient dilution with medium containing 0.1% DMSO to give 9 concentrations.
(§4) • A) The cell culture plate was taken out, and 10 µL of 5 mg/mL MTT was added in a biological safety cabinet; • B) The plate was returned to the incubator and incubated for another 3 hours; • C) The cell culture plate was taken out and the medium was removed, 100 µL of isopropanol (containing 0.4 mM HCl, 0.1% NP-40) was added, and the plate was shaken at room temperature for 30 minutes; • D) The absorbance at 570 nm was measured using a TECAN microplate reader.

[2] = test system: human mantle cell lymphoma cells JEKO-1; assay: Cell anti-proliferation assay (MTT), JEKO-1; assay type: cell-based; conditions: JEKO-1 cells, incubated for 5 days
Experimental: as §1, §2, §3, §4

[3] = test system: human ovarian cancer cells A2780; assay: Cell anti-proliferation assay (MTT), A2780; assay type: cell-based; conditions: incubated for 5 days
Experimental: as §1, §2, §3, §4

CDK6/CyclinD3 = molecular target: T1, CDK6/CyclinD3 (Homo sapiens, UniProt Q00534); assay: Kinase activity assay (MSA, EZ Reader) against CDK6; assay type: biochemical; conditions: CDK6/CyclinD3 5.00 nM, ATP 350 µM, FL-Peptide34, 10mM MgCl2
T1 construct: purchased Carna 04-107

[4] = Preclinical pharmacokinetic study in rats; assay type: in vivo, Sprague-Dawley (SD) rats; conditions: male SD rats, oral gavage (p.o.) 10 mg/kg, plasma; for AUC(0-t) / Cmax / Tmax: Sprague-Dawley, rat
Experimental: Healthy adult Sprague-Dawley (SD) rats, male, 6-8 weeks old, weighing 200-300 g. EDTA-Na2 anticoagulant. Analytical balance, animal weighing scale, magnetic stirrer, refrigerated centrifuge, single-channel manual pipette, etc. About 10 mg of the test sample was precisely weighed, dissolved in a calculated volume of 5% DMSO, followed by addition of 10% solutol HS-15 and 85% normal saline. The mixture was sonicated and vortexed to homogeneity to obtain a solution with a concentration of 1 mg/mL. The solution was freshly prepared before use. Animals were housed in rat cages and fasted overnight (no less than 10 h) before the test, with free access to water. On the day of the test, animals were weighed and marked on the tail. Blank blood samples were collected before administration. The blood was collected via tail vein. • Route of administration: oral gavage (p.o.) • Dose: 10 mg/kg • Dosing volume: 10 mL/kg • Procedure: The rat was held upright with the left hand wearing bite-resistant glove. A 16-gauge gavage needle was inserted through the mouth into the esophagus. The needle was advanced gently without obvious resistance, and the drug solution was injected into the stomach. Whole blood (0.1 mL) were collected from each test animal before administration and at 0.5 […], and 24 h after administration into EDTA-Na2 anticoagulant tubes. The tubes were inverted 3-4 times for mixing, then centrifuged at 10,000 g for 5 min at 4 °C to separate plasma. Plasma samples were stored at -80 °C until analysis. Blood was collected via tail vein. […] The mixture was vortexed for 2 min and centrifuged at 10,000 g for 10 min at 4 °C. Processing of unknown plasma samples: 25 μL of drug-containing rat plasma was transferred, followed by addition of 25 μL of methanol and 200 μL of internal standard solution. The mixture was vortexed for 2 min and centrifuged at 10,000 g for 10 min at 4 °C. The supernatant was collected for LC-MS/MS analysis. A quantitative method for the determination of the test compound was established using a Shimadzu liquid chromatography system coupled with Triple Quad^TM 6500+ AB mass spectrometer. The concentration of the parent drug in plasma was determined. The plasma concentration-time curve was plotted, and the main pharmacokinetic parameters were calculated using a non-compartmental model in winnonlin Phoenix software.

T1 sequence (Q00534 whole entry): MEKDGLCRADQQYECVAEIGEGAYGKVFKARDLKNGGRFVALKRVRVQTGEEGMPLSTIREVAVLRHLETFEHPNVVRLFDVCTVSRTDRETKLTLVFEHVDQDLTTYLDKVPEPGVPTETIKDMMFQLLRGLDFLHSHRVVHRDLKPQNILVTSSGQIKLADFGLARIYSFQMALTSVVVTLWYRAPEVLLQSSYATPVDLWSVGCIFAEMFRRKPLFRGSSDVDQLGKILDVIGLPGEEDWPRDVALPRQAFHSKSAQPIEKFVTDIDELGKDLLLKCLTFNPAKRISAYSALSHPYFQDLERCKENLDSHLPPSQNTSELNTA
T1 sequence (P30281 whole entry partner): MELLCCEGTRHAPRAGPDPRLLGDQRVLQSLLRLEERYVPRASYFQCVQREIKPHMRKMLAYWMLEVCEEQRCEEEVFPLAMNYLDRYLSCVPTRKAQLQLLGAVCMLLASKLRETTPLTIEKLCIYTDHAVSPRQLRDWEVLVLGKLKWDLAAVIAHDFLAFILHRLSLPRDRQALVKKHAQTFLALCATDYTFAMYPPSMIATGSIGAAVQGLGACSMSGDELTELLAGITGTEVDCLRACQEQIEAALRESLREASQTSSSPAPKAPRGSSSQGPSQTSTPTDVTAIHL

| Compound | IC50 ([1]; read-out: MCF7 IC50) | IC50 [2] | IC50 [3] | IC50 ([1]; Homo sapiens, MCF7, 120 h) | IC50 ([2]; Homo sapiens, 120 h) | IC50 ([3]; Homo sapiens, 120 h) | IC50 (CDK6/CyclinD3) | AUC(0-t) [4] | Cmax [4] | Tmax [4] | HL_ [4] |
| --- | --- | --- | --- | --- | --- | --- | --- | --- | --- | --- | --- |
| CN1CCCn2c1nc1c(F)cc(-c3nc(NC4CCN(S(C)(=O)=O)CC4)ncc3Cl)cc12 [TB-43, 5-chloro-4-(9-fluoro-1-methyl-1,2,3,4-tetrahydrobenzo[4,5]imidazo[1,2-a]pyrimidin-7-yl)-N-(1-(methylsulfonyl)piperidin-4-yl)pyrimidin-2-amine] | ≤ 500 nM | ≤ 500 nM | ≤ 500 nM | – | – | – | – | – | – | – | – |
| C[C@H]1CCN([C@H]2C[C@@H](O)C2)c2nc3c(F)cc(-c4nc(N[C@@H]5CCOC[C@H]5O)ncc4Cl)cc3n21 [TA-42] | – | – | – | > 2000 nM | 500 to 2000 nM | 500 to 2000 nM | – | – | – | – | – |
| COCc1cc(Nc2ncc(Cl)c(-c3cc(F)c4nc5n(c4c3)CCCN5C)n2)ccn1 [TB-130, 5-chloro-4-(9-fluoro-1-methyl-1,2,3,4-tetrahydrobenzo[4,5]imidazo[1,2-a]pyrimidin-7-yl)-N-(2-(methoxymethyl)pyridin-4-yl)pyrimidin-2-amine] | – | – | – | ≤ 500 nM | ≤ 500 nM | ≤ 500 nM | 155 nM | – | – | – | – |
| C[C@H]1CCN([C@H]2C[C@H](O)C2)c2nc3c(F)cc(-c4nc(N[C@@H]5CCOC[C@H]5O)ncc4Cl)cc3n21 [TA-31] | > 2000 nM | ≤ 500 nM | 500 to 2000 nM | – | – | – | – | – | – | – | – |
| CN1CCn2c1nc1c(F)cc(-c3nc(N[C@@H]4CCOC[C@H]4O)ncc3Cl)cc12 [TB-45, (3S,4R)-4-((5-chloro-4-(8-fluoro-1-methyl-2,3-dihydro-1H-benzo[d]imidazo[1,2-a]imidazol-6-yl)pyrimidin-2-yl)amino)tetrahydro-2H-pyran-3-ol] | – | – | – | ≤ 500 nM | ≤ 500 nM | ≤ 500 nM | 241 nM | – | – | – | – |
| C[C@H]1CCN(CC(F)(F)F)c2nc3c(F)cc(-c4nc(N[C@@H]5CCOC[C@H]5O)ncc4Cl)cc3n21 [TA-29] | – | – | – | ≤ 500 nM | ≤ 500 nM | ≤ 500 nM | – | 1490 ng·h/mL | 506 ng/mL | 40.2 min | 1.60 h |
| CN1CCC(C)(C)n2c1nc1c(F)cc(-c3cc(N[C@@H]4CCOC[C@H]4O)ncc3Cl)cc12 [TB-150] | – | – | – | ≤ 500 nM | ≤ 500 nM | ≤ 500 nM | – | – | – | – | – |
| C[C@H]1CC(=O)N(C)c2nc3c(F)cc(-c4cc(N[C@@H]5CCOC[C@H]5O)ncc4Cl)cc3n21 [TB-158] | – | – | – | ≤ 500 nM | ≤ 500 nM | ≤ 500 nM | – | – | – | – | – |
| CCN1CCCn2c1nc1c(F)cc(-c3nc(N[C@@H]4CCOC[C@H]4O)ncc3Cl)cc12 [TB-109, (3S,4R)-4-((5-chloro-4-(1-ethyl-9-fluoro-1,2,3,4-tetrahydrobenzo[4,5]imidazo[1,2-a]pyrimidin-7-yl)pyrimidin-2-yl)amino)tetrahydro-2H-pyran-3-ol] | – | – | – | 500 to 2000 nM | ≤ 500 nM | ≤ 500 nM | – | 1770 ng·h/mL | 777 ng/mL | 30 min | 5.32 h |
| COc1ccc(CN2CC[C@H](C)n3c2nc2c(F)cc(-c4nc(N[C@@H]5CCOC[C@H]5O)ncc4Cl)cc23)cc1 [TA-8] | – | – | – | ≤ 500 nM | ≤ 500 nM | 500 to 2000 nM | – | – | – | – | – |
| CC(C)N1CCCn2c1nc1c(F)cc(-c3nc(N[C@@H]4CCOC[C@H]4O)ncc3Cl)cc12 [TB-108, (3S,4R)-4-((5-chloro-4-(9-fluoro-1-isopropyl-1,2,3,4-tetrahydrobenzo[4,5]imidazo[1,2-a]pyrimidin-7-yl)pyrimidin-2-yl)amino)tetrahydro-2H-pyran-3-ol] | – | – | – | ≤ 500 nM | ≤ 500 nM | ≤ 500 nM | – | 1370 ng·h/mL | 503 ng/mL | 36 min | 1.25 h |
| C[C@H]1CCN(c2cc(F)ccc2F)c2nc3c(F)cc(-c4nc(N[C@@H]5CCOC[C@H]5O)ncc4Cl)cc3n21 [TC-16] | – | – | – | ≤ 500 nM | ≤ 500 nM | ≤ 500 nM | – | – | – | – | – |
